# Data reported in patent US20200407717A1, “METHODS OF MODULATING ANTISENSE ACTIVITY” (Ionis Pharmaceuticals, Inc., priority 2018, published 2020).
# e = 2'-O-(2-methoxyethyl) (MOE); d = 2'-deoxy (DNA)
# Assays:
# EGF-EGFR signaling = assay: EGFR signaling western blot (p-EGFR, p-ERK), A431 cells; format: cell-based; details: 2 μM for 16 hours
# Procedure, shortened: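 A431 cells incubated 16 h with PS-ASO (2 μM where stated) or without PS-ASO, then EGF-treated and put through a pulse-chase protocol. Lysates resolved by SDS-PAGE and sequentially immunoblotted for phospho- and total EGFR and ERK.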
# Malat1 RNA = assay: Antisense activity by RT-qPCR, Malat1, A431 cells; format: cell-based
# Procedure: A431 cells were grown at 10,000 cells per well and pre-treated with a variety of growth factors to determine if the addition of exogenous growth factors affects antisense activity or uptake of modified antisense oligonucleotides in a cell. The growth factors used were EGF, insulin growth factor (IGF), transforming growth factor (TGF), […] (VEGF), hepatocyte growth factor (HGF), platelet growth factor (PGF) and fibroblasts growth factor (FGF). To test antisense activity, cells were treated for 4 hours with a growth factor or vehicle alone, and then treated with compound no. 25690 (complementary to Drosha), compound no. 395254 (complementary to Malat1), or vehicle alone. RNA was isolated from the cells and Drosha or Malat1 RNA levels were measured by RT-qPCR. Human primer probe set 13816 (forward sequence […], designated herein as SEQ ID NO: 3; reverse sequence […], designated herein as SEQ ID NO: 4; probe sequence […], designated herein as SEQ ID NO: 5) was used to measure Drosha mRNA levels and primer probe set RTS2736 (forward sequence […], designated herein as SEQ ID NO: 6; reverse sequence […], designated herein as SEQ ID NO: 7; probe sequence TGCCACATCGCCACCCCGT, designated herein as SEQ ID NO: 8) was used to measure Malat1 RNA levels. Drosha and Malat1 RNA levels were normalized to total RNA content, as measured by RIBOGREEN®. Results are presented in the tables below as normalized RNA levels, relative to untreated control cells.
# A431 cells were treated with EGF or TGF at 200 ng/mL in the presence or absence of 1 μM of the EGFR tyrosine kinase inhibitor PD174265. The cells were then treated with compound no. 25690 or compound no. 395254 as in Example 8. Total RNA was isolated and analyzed by RT-qPCR, as in Example 8.
# Following siRNA treatment, cells were treated with compound no. 25690 or compound no. 395254 in the presence or absence of EGF. 16 hours after treatment with a PS-ASO with or without EGF, cells were harvested, and RNA levels were analyzed via RT-qPCR as in Example 8.
sequence,measurement,setting,value
"GGCATATGCAGATAATGTTC (sugars from the 5' end e5 d10 e5, all phosphorothioate, methylation of C not given here) [compound 395254]",EGFR signaling,EGF-EGFR signaling,not be impacted
same,Malat1 RNA (% Control),"Malat1 RNA; 2.0 nM, Control",100.0 % Control
same,Malat1 RNA (% Control),"Malat1 RNA; 2.0 nM, Control Luciferase siRNA",100.0 % Control
same,Malat1 RNA (% Control),"Malat1 RNA; 2.0 nM, Control Luciferase siRNA, Table 27",100 % Control
same,Malat1 RNA (% Control),"Malat1 RNA; 2.0 nM, Control luciferase + EGF",100 % Control
same,Malat1 RNA (% Control),"Malat1 RNA; 2.0 nM, Control, Table 21",100.0 % Control
same,Malat1 RNA (% Control),"Malat1 RNA; 2.0 nM, EGF",100.0 % Control
same,Malat1 RNA (% Control),"Malat1 RNA; 2.0 nM, EGFR siRNA-1",100.0 % Control
same,Malat1 RNA (% Control),"Malat1 RNA; 2.0 nM, EGFR siRNA-2",100.0 % Control
same,Malat1 RNA (% Control),"Malat1 RNA; 2.0 nM, EGFR siRNA-2 + EGF",100 % Control
same,Malat1 RNA (% Control),"Malat1 RNA; 2.0 nM, EGFR siRNA-2, Table 27",100 % Control
same,Malat1 RNA (% Control),"Malat1 RNA; 2.0 nM, TGF",100.0 % Control
same,Malat1 RNA (% Control),"Malat1 RNA; 2.0 nM, TGF+PD174265",100.0 % Control
same,Malat1 RNA (% Control),"Malat1 RNA; 2.0 nM, TGF, Table 21",100.0 % Control
same,Malat1 RNA (% Control),"Malat1 RNA; 3.9 nM, Control",109.0 % Control
same,Malat1 RNA (% Control),"Malat1 RNA; 3.9 nM, Control Luciferase siRNA",72.7 % Control
same,Malat1 RNA (% Control),"Malat1 RNA; 3.9 nM, Control Luciferase siRNA, Table 27",110.2 % Control
same,Malat1 RNA (% Control),"Malat1 RNA; 3.9 nM, Control luciferase + EGF",108.2 % Control
same,Malat1 RNA (% Control),"Malat1 RNA; 3.9 nM, Control, Table 21",110.2 % Control
same,Malat1 RNA (% Control),"Malat1 RNA; 3.9 nM, EGF",76.0 % Control
same,Malat1 RNA (% Control),"Malat1 RNA; 3.9 nM, EGFR siRNA-1",108.4 % Control
same,Malat1 RNA (% Control),"Malat1 RNA; 3.9 nM, EGFR siRNA-2",90.4 % Control
same,Malat1 RNA (% Control),"Malat1 RNA; 3.9 nM, EGFR siRNA-2 + EGF",108.2 % Control
same,Malat1 RNA (% Control),"Malat1 RNA; 3.9 nM, EGFR siRNA-2, Table 27",105.2 % Control
same,Malat1 RNA (% Control),"Malat1 RNA; 3.9 nM, TGF",99.9 % Control
same,Malat1 RNA (% Control),"Malat1 RNA; 3.9 nM, TGF+PD174265",108.2 % Control
same,Malat1 RNA (% Control),"Malat1 RNA; 3.9 nM, TGF, Table 21",105.2 % Control
same,Malat1 RNA (% Control),"Malat1 RNA; 7.8 nM, Control",127.0 % Control
same,Malat1 RNA (% Control),"Malat1 RNA; 7.8 nM, Control Luciferase siRNA",81.9 % Control
same,Malat1 RNA (% Control),"Malat1 RNA; 7.8 nM, Control Luciferase siRNA, Table 27",99.3 % Control
same,Malat1 RNA (% Control),"Malat1 RNA; 7.8 nM, Control luciferase + EGF",91.2 % Control
same,Malat1 RNA (% Control),"Malat1 RNA; 7.8 nM, Control, Table 21",99.3 % Control
same,Malat1 RNA (% Control),"Malat1 RNA; 7.8 nM, EGF",98.1 % Control
same,Malat1 RNA (% Control),"Malat1 RNA; 7.8 nM, EGFR siRNA-1",103.1 % Control
same,Malat1 RNA (% Control),"Malat1 RNA; 7.8 nM, EGFR siRNA-2",85.1 % Control
same,Malat1 RNA (% Control),"Malat1 RNA; 7.8 nM, EGFR siRNA-2 + EGF",99.2 % Control
same,Malat1 RNA (% Control),"Malat1 RNA; 7.8 nM, EGFR siRNA-2, Table 27",105.2 % Control
same,Malat1 RNA (% Control),"Malat1 RNA; 7.8 nM, TGF",101.8 % Control
same,Malat1 RNA (% Control),"Malat1 RNA; 7.8 nM, TGF+PD174265",91.2 % Control
same,Malat1 RNA (% Control),"Malat1 RNA; 7.8 nM, TGF, Table 21",105.2 % Control
same,Malat1 RNA (% Control),"Malat1 RNA; 15.6 nM, Control",125.6 % Control
same,Malat1 RNA (% Control),"Malat1 RNA; 15.6 nM, Control Luciferase siRNA",61.0 % Control
same,Malat1 RNA (% Control),"Malat1 RNA; 15.6 nM, Control Luciferase siRNA, Table 27",87.2 % Control
same,Malat1 RNA (% Control),"Malat1 RNA; 15.6 nM, Control luciferase + EGF",67.2 % Control
same,Malat1 RNA (% Control),"Malat1 RNA; 15.6 nM, Control, Table 21",77.2 % Control
same,Malat1 RNA (% Control),"Malat1 RNA; 15.6 nM, EGF",96.4 % Control
same,Malat1 RNA (% Control),"Malat1 RNA; 15.6 nM, EGFR siRNA-1",98.4 % Control
same,Malat1 RNA (% Control),"Malat1 RNA; 15.6 nM, EGFR siRNA-2",82.5 % Control
same,Malat1 RNA (% Control),"Malat1 RNA; 15.6 nM, EGFR siRNA-2 + EGF",99.2 % Control
same,Malat1 RNA (% Control),"Malat1 RNA; 15.6 nM, EGFR siRNA-2, Table 27",97.2 % Control
same,Malat1 RNA (% Control),"Malat1 RNA; 15.6 nM, TGF",93.2 % Control
same,Malat1 RNA (% Control),"Malat1 RNA; 15.6 nM, TGF+PD174265",77.2 % Control
same,Malat1 RNA (% Control),"Malat1 RNA; 15.6 nM, TGF, Table 21",107.2 % Control
same,Malat1 RNA (% Control),"Malat1 RNA; 31.3 nM, Control",120.2 % Control
same,Malat1 RNA (% Control),"Malat1 RNA; 31.3 nM, Control Luciferase siRNA",47.0 % Control
same,Malat1 RNA (% Control),"Malat1 RNA; 31.3 nM, Control Luciferase siRNA, Table 27",76.3 % Control
same,Malat1 RNA (% Control),"Malat1 RNA; 31.3 nM, Control luciferase + EGF",58.7 % Control
same,Malat1 RNA (% Control),"Malat1 RNA; 31.3 nM, Control, Table 21",66.3 % Control
same,Malat1 RNA (% Control),"Malat1 RNA; 31.3 nM, EGF",111.9 % Control
same,Malat1 RNA (% Control),"Malat1 RNA; 31.3 nM, EGFR siRNA-1",67.4 % Control
same,Malat1 RNA (% Control),"Malat1 RNA; 31.3 nM, EGFR siRNA-2",57.7 % Control
same,Malat1 RNA (% Control),"Malat1 RNA; 31.3 nM, EGFR siRNA-2 + EGF",114.0 % Control
same,Malat1 RNA (% Control),"Malat1 RNA; 31.3 nM, EGFR siRNA-2, Table 27",95.9 % Control
same,Malat1 RNA (% Control),"Malat1 RNA; 31.3 nM, TGF",109.8 % Control
same,Malat1 RNA (% Control),"Malat1 RNA; 31.3 nM, TGF+PD174265",68.7 % Control
same,Malat1 RNA (% Control),"Malat1 RNA; 31.3 nM, TGF, Table 21",55.9 % Control
same,Malat1 RNA (% Control),"Malat1 RNA; 62.5 nM, Control",109.6 % Control
same,Malat1 RNA (% Control),"Malat1 RNA; 62.5 nM, Control Luciferase siRNA",33.2 % Control
same,Malat1 RNA (% Control),"Malat1 RNA; 62.5 nM, Control Luciferase siRNA, Table 27",67.2 % Control
same,Malat1 RNA (% Control),"Malat1 RNA; 62.5 nM, Control luciferase + EGF",54.2 % Control
same,Malat1 RNA (% Control),"Malat1 RNA; 62.5 nM, Control, Table 21",57.2 % Control
same,Malat1 RNA (% Control),"Malat1 RNA; 62.5 nM, EGF",85.9 % Control
same,Malat1 RNA (% Control),"Malat1 RNA; 62.5 nM, EGFR siRNA-1",45.0 % Control
same,Malat1 RNA (% Control),"Malat1 RNA; 62.5 nM, EGFR siRNA-2",43.6 % Control
same,Malat1 RNA (% Control),"Malat1 RNA; 62.5 nM, EGFR siRNA-2 + EGF",79.7 % Control
same,Malat1 RNA (% Control),"Malat1 RNA; 62.5 nM, EGFR siRNA-2, Table 27",77.2 % Control
same,Malat1 RNA (% Control),"Malat1 RNA; 62.5 nM, TGF",91.4 % Control
same,Malat1 RNA (% Control),"Malat1 RNA; 62.5 nM, TGF+PD174265",54.2 % Control
same,Malat1 RNA (% Control),"Malat1 RNA; 62.5 nM, TGF, Table 21",47.2 % Control
same,Malat1 RNA (% Control),"Malat1 RNA; 125 nM, Control",131.6 % Control
same,Malat1 RNA (% Control),"Malat1 RNA; 125 nM, Control Luciferase siRNA",18.9 % Control
same,Malat1 RNA (% Control),"Malat1 RNA; 125 nM, Control Luciferase siRNA, Table 27",44 % Control
same,Malat1 RNA (% Control),"Malat1 RNA; 125 nM, Control luciferase + EGF",37.0 % Control
same,Malat1 RNA (% Control),"Malat1 RNA; 125 nM, Control, Table 21",44.0 % Control
same,Malat1 RNA (% Control),"Malat1 RNA; 125 nM, EGF",62.3 % Control
